Measured values taken from paper PMC7577350 (ACS chemical biology, 2013).
Where two headings read alike, the source gives them in different places. Numbered stars: 1 amine (or outer) side, 2 acyl side, 3 side chain; on linkers, the order of the positions; unused ones are H or OH. Bridge positions count the residues as written; N and C are the ends. Square brackets hold non-standard residues; d marks the D form. Peptide text beside a SMILES is read from it. Nle(6-ylidene) = O=C([C@H](CCCC=[*:3])N[*:1])[*:2]; Gly(pent-4-enyl) = C=CCCC[C@H](N)C(=O)O

Experiments:
[1] = MTT cytotoxicity assay; assay type: cell-based
[2] = tested on: HIV-1 NL4-3; assay: MT-4 Luc assay; assay type: cell-based; conditions: MT-4 Luc cells; for concentrations at which significant anti-HIV activity was shown: luciferase signal
[3] = target: T1, HIV-1 IN (Human immunodeficiency virus type 1 group M subtype B, UniProt P04585); assay: Integrase assay, 3′-end processing reaction; assay type: biochemical
[4] = tested on: HIV-1 (NL4-3 strain); assay type: cell-based; conditions: read-out: EC50 (μM) p24 assay, MT-4 cells
[5] = tested on: HIV-1 (NL4-3 strain); assay: MTT anti-HIV assay; assay type: cell-based; conditions: read-out: EC50 (μM) MTT assay; MT-4 cells, HIV-1 NL4-3, Table 3
[6] = target: T1, HIV-1 IN; assay: Integrase assay, strand transfer reaction; assay type: biochemical
[7] = tested on: mock-infected MT-4 cells; assay: MTT cytotoxicity assay; assay type: cell-based
[8] = CC50 (μM) MTT assay, mock infected MT-4 cells, Table 3
[9] = CC50 (μM) MTT assay, mock infected MT-4 cells, Table 4
[10] = both 3′-end processing and strand transfer reactions

CC[C@H](C)[C@H](NC(=O)[C@H](C)NC(=O)[C@H](CCC(=O)O)NC(C)=O)C(=O)N[C@H]1CCCC=CCCC[C@@H](C(=O)N[C@@H](CCC(N)=O)C(=O)N[C@@H](CC(C)C)C(=O)N[C@@H](CC(C)C)C(=O)N[C@@H](Cc2ccccc2)C(=O)N[C@H](C(=O)N[C@@H](Cc2c[nH]cn2)C(=O)N[C@@H](Cc2ccccc2)C(=O)N[C@@H](CCCNC(=N)N)C(=O)N[C@H](C(=O)NCC(=O)N[C@@H](CCCNC(=N)N)C(=O)N[C@@H](CCCNC(=N)N)C(=O)N[C@@H](CCCNC(=N)N)C(=O)N[C@@H](CCCNC(=N)N)C(=O)N[C@@H](CCCNC(=N)N)C(=O)N[C@@H](CCCNC(=N)N)C(=O)N[C@@H](CCCNC(=N)N)C(=O)N[C@@H](CCCNC(=N)N)C(N)=O)[C@@H](C)CC)[C@@H](C)CC)NC(=O)[C@H](CC(C)C)NC(=O)[C@H]([C@@H](C)CC)NC(=O)[C@H](CCCNC(=N)N)NC1=O [compound 17] (Ac-EAI[Nle(6-ylidene)]RIL[Nle(6-ylidene)]QLLFIHFRIGRRRRRRRR-NH2; staple 4-8)
CC50 [1, 8]: 7.04 µM
CC50 [1, 9]: 6.9 µM
concentrations at which significant anti-HIV activity was shown [2]: above 1.25 μM

CC[C@H](C)[C@H](NC(=O)[C@H](C)NC(=O)[C@H](CCC(=O)O)NC(C)=O)C(=O)N[C@H](C(=O)N[C@@H](CCCNC(=N)N)C(=O)N[C@H](C(=O)N[C@@H](CC(C)C)C(=O)N[C@@H](CCC(N)=O)C(=O)N[C@@H](CCC(N)=O)C(=O)N[C@@H](CC(C)C)C(=O)N[C@@H](CC(C)C)C(=O)N[C@@H](Cc1ccccc1)C(=O)N[C@H](C(=O)N[C@@H](Cc1c[nH]cn1)C(=O)N[C@@H](Cc1ccccc1)C(=O)N[C@@H](CCCNC(=N)N)C(=O)N[C@H](C(=O)NCC(=O)N[C@@H](CCCNC(=N)N)C(=O)N[C@@H](CCCNC(=N)N)C(=O)N[C@@H](CCCNC(=N)N)C(=O)N[C@@H](CCCNC(=N)N)C(=O)N[C@@H](CCCNC(=N)N)C(=O)N[C@@H](CCCNC(=N)N)C(=O)N[C@@H](CCCNC(=N)N)C(=O)N[C@@H](CCCNC(=N)N)C(N)=O)[C@@H](C)CC)[C@@H](C)CC)[C@@H](C)CC)[C@@H](C)CC [compound 2]
CC50 [1]: 5.91 µM
concentrations at which significant anti-HIV activity was shown [2]: above 2.5 μM
inhibitory levels × higher than those of compound 1 [3, 10]: approximately 30 ×

CC[C@H](C)[C@H](NC(=O)[C@H](C)NC(=O)[C@H](CCC(=O)O)NC(C)=O)C(=O)N[C@H]1CCCC=CCCC[C@@H](C(=O)N[C@@H](CCC(N)=O)C(=O)N[C@@H](CC(C)C)C(=O)N[C@@H](CC(C)C)C(=O)N[C@@H](Cc2ccccc2)C(=O)N[C@H](C(=O)N[C@@H](Cc2c[nH]cn2)C(=O)N[C@@H](Cc2ccccc2)C(=O)N[C@@H](CCCNC(=N)N)C(=O)N[C@H](C(=O)NCC(=O)N[C@@H](CCCNC(=N)N)C(=O)N[C@@H](CCCNC(=N)N)C(=O)N[C@@H](CCCNC(=N)N)C(=O)N[C@@H](CCCNC(=N)N)C(=O)N[C@@H](CCCNC(=N)N)C(N)=O)[C@@H](C)CC)[C@@H](C)CC)NC(=O)[C@H](CC(C)C)NC(=O)[C@H]([C@@H](C)CC)NC(=O)[C@H](CCCNC(=N)N)NC1=O [compound 21] (Ac-EAI[Nle(6-ylidene)]RIL[Nle(6-ylidene)]QLLFIHFRIGRRRRR-NH2; staple 4-8)
CC50 [1, 9]: 15 µM
× higher inhibition than compound 6S [3, 10]: 3–6 ×

C=CCCC[C@H](NC(=O)[C@H](CC(C)C)NC(=O)[C@@H](NC(=O)[C@H](CCCNC(=N)N)NC(=O)[C@H](CCCC=C)NC(=O)[C@@H](NC(=O)[C@H](C)NC(=O)[C@H](CCC(=O)O)NC(C)=O)[C@@H](C)CC)[C@@H](C)CC)C(=O)N[C@@H](CCC(N)=O)C(=O)N[C@@H](CC(C)C)C(=O)N[C@@H](CC(C)C)C(=O)N[C@@H](Cc1ccccc1)C(=O)N[C@H](C(=O)N[C@@H](Cc1c[nH]cn1)C(=O)N[C@@H](Cc1ccccc1)C(=O)N[C@@H](CCCNC(=N)N)C(=O)N[C@H](C(=O)NCC(=O)N[C@@H](CCCNC(=N)N)C(=O)N[C@@H](CCC(=O)O)C(=O)N[C@@H](CCCNC(=N)N)C(=O)N[C@@H](CCC(=O)O)C(=O)N[C@@H](CCCNC(=N)N)C(=O)N[C@@H](CCC(=O)O)C(=O)N[C@@H](CCCNC(=N)N)C(=O)N[C@@H](CCC(=O)O)C(N)=O)[C@@H](C)CC)[C@@H](C)CC [compound 19] (Ac-EAI[Gly(pent-4-enyl)]RIL[Gly(pent-4-enyl)]QLLFIHFRIGRERERERE-NH2)
CC50 [1, 8]: > 10 µM
concentrations at which significant anti-HIV activity was shown [2]: 10 µM

CC[C@H](C)[C@H](NC(=O)[C@H](C)NC(=O)[C@H](CCC(=O)O)NC(C)=O)C(=O)N[C@H]1CCCC=CCCC[C@@H](C(=O)N[C@@H](CCC(N)=O)C(=O)N[C@@H](CC(C)C)C(=O)N[C@@H](CC(C)C)C(=O)N[C@@H](Cc2ccccc2)C(=O)N[C@H](C(=O)N[C@@H](Cc2c[nH]cn2)C(=O)N[C@@H](Cc2ccccc2)C(=O)N[C@@H](CCCNC(=N)N)C(=O)N[C@H](C(=O)NCC(=O)N[C@@H](CCCNC(=N)N)C(=O)N[C@@H](CCCNC(=N)N)C(=O)N[C@@H](CCCNC(=N)N)C(=O)N[C@@H](CCCNC(=N)N)C(=O)N[C@@H](CCCNC(=N)N)C(=O)N[C@@H](CCCNC(=N)N)C(N)=O)[C@@H](C)CC)[C@@H](C)CC)NC(=O)[C@H](CC(C)C)NC(=O)[C@H]([C@@H](C)CC)NC(=O)[C@H](CCCNC(=N)N)NC1=O [compound 22] (Ac-EAI[Nle(6-ylidene)]RIL[Nle(6-ylidene)]QLLFIHFRIGRRRRRR-NH2; staple 4-8)
CC50 [1, 9]: 13 µM
× higher inhibitory levels than compounds 20 and 21 ([3]; both reactions): 2 ×

CC[C@H](C)[C@H](NC(=O)[C@H](C)NC(=O)[C@H](CCC(=O)O)NC(C)=O)C(=O)N[C@H]1CCCC=CCCC[C@@H](C(=O)N[C@@H](CCC(N)=O)C(=O)N[C@@H](CC(C)C)C(=O)N[C@@H](CC(C)C)C(=O)N[C@@H](Cc2ccccc2)C(=O)N[C@H](C(=O)N[C@@H](Cc2c[nH]cn2)C(=O)N[C@@H](Cc2ccccc2)C(=O)N[C@@H](CCCNC(=N)N)C(=O)N[C@H](C(=O)NCC(=O)N[C@@H](CCCNC(=N)N)C(=O)N[C@@H](CCCNC(=N)N)C(=O)N[C@@H](CCCNC(=N)N)C(=O)N[C@@H](CCCNC(=N)N)C(N)=O)[C@@H](C)CC)[C@@H](C)CC)NC(=O)[C@H](CC(C)C)NC(=O)[C@H]([C@@H](C)CC)NC(=O)[C@H](CCCNC(=N)N)NC1=O [compound 20] (Ac-EAI[Nle(6-ylidene)]RIL[Nle(6-ylidene)]QLLFIHFRIGRRRR-NH2; staple 4-8)
CC50 [1, 9]: 16 µM
× higher inhibition than compound 6S [3, 10]: 3–6 ×

CC[C@H](C)[C@H](NC(=O)[C@H](C)NC(=O)[C@H](CCC(=O)O)NC(C)=O)C(=O)N[C@H](C(=O)N[C@@H](CCCNC(=N)N)C(=O)N[C@H](C(=O)N[C@@H](CC(C)C)C(=O)N[C@@H](CCC(N)=O)C(=O)N[C@@H](CCC(N)=O)C(=O)N[C@@H](CC(C)C)C(=O)N[C@@H](CC(C)C)C(=O)N[C@@H](Cc1ccccc1)C(=O)N[C@H](C(=O)N[C@@H](Cc1c[nH]cn1)C(=O)N[C@@H](Cc1ccccc1)C(=O)N[C@@H](CCCNC(=N)N)C(=O)N[C@H](C(=O)NCC(N)=O)[C@@H](C)CC)[C@@H](C)CC)[C@@H](C)CC)[C@@H](C)CC [compound 1]
EC50 ([4]; HIV-1 NL4-3, Table 3): > 10 µM
EC50 ([4]; HIV-1 NL4-3, Table 4): > 20 µM
CC50 [1, 8]: > 10 µM
EC50 [5]: > 10 µM
anti-HIV activity at concentrations below 10 μM ([2]; below 10 μM): no significant anti-HIV activity
IC50 ([6]; IC50 (μM) strand transfer, Table 3 batch): 1.34 ± 0.2 µM
IC50 ([6]; IC50 (μM) strand transfer, Table 4 batch): 2.2 ± 0.2 µM
IC50 ([6]; IC50 strand transfer, Table 2): 1.1 ± 0.08 µM
IC50 ([3]; IC50 3′-end processing, Table 2): 2.6 ± 0.2 µM
IC50 ([3]; IC50 (μM) 3′-end processing, Table 3 batch): 1.62 ± 0.26 µM
IC50 ([3]; IC50 (μM) 3′-end processing, Table 4 batch): 2 ± 0.2 µM

CC[C@H](C)[C@H](NC(=O)[C@H](C)NC(=O)[C@H](CCC(=O)O)NC(C)=O)C(=O)N[C@H]1CCCC=CCCC[C@@H](C(=O)N[C@@H](CCC(N)=O)C(=O)N[C@@H](CC(C)C)C(=O)N[C@@H](CC(C)C)C(=O)N[C@@H](Cc2ccccc2)C(=O)N[C@H](C(=O)N[C@@H](Cc2c[nH]cn2)C(=O)N[C@@H](Cc2ccccc2)C(=O)N[C@@H](CCCNC(=N)N)C(=O)N[C@H](C(=O)NCC(=O)N[C@@H](CCCNC(=N)N)C(=O)N[C@@H](CCC(=O)O)C(=O)N[C@@H](CCCNC(=N)N)C(=O)N[C@@H](CCC(=O)O)C(=O)N[C@@H](CCCNC(=N)N)C(=O)N[C@@H](CCC(=O)O)C(=O)N[C@@H](CCCNC(=N)N)C(=O)N[C@@H](CCC(=O)O)C(N)=O)[C@@H](C)CC)[C@@H](C)CC)NC(=O)[C@H](CC(C)C)NC(=O)[C@H]([C@@H](C)CC)NC(=O)[C@H](CCCNC(=N)N)NC1=O [compound 18] (Ac-EAI[Nle(6-ylidene)]RIL[Nle(6-ylidene)]QLLFIHFRIGRERERERE-NH2; staple 4-8)
CC50 [1, 8]: > 10 µM
concentrations at which significant anti-HIV activity was shown [2]: above 5 μM

CC[C@H](C)[C@H](NC(=O)[C@H](C)NC(=O)[C@H](CCC(=O)O)NC(C)=O)C(=O)N[C@H]1CCCC=CCCC[C@@H](C(=O)N[C@@H](CCC(N)=O)C(=O)N[C@@H](CC(C)C)C(=O)N[C@@H](CC(C)C)C(=O)N[C@@H](Cc2ccccc2)C(=O)N[C@H](C(=O)N[C@@H](Cc2c[nH]cn2)C(=O)N[C@@H](Cc2ccccc2)C(=O)N[C@@H](CCCNC(=N)N)C(=O)N[C@H](C(=O)NCC(=O)N[C@@H](CCCNC(=N)N)C(=O)N[C@@H](CCCNC(=N)N)C(=O)N[C@@H](CCCNC(=N)N)C(=O)N[C@@H](CCCNC(=N)N)C(=O)N[C@@H](CCCNC(=N)N)C(=O)N[C@@H](CCCNC(=N)N)C(=O)N[C@@H](CCCNC(=N)N)C(N)=O)[C@@H](C)CC)[C@@H](C)CC)NC(=O)[C@H](CC(C)C)NC(=O)[C@H]([C@@H](C)CC)NC(=O)[C@H](CCCNC(=N)N)NC1=O [compound 23] (Ac-EAI[Nle(6-ylidene)]RIL[Nle(6-ylidene)]QLLFIHFRIGRRRRRRR-NH2; staple 4-8)
CC50 [1, 9]: 12 µM

Cc1cn([C@H]2C[C@H](N=[N+]=[N-])[C@@H](CO)O2)c(=O)[nH]c1=O [AZT, reference compound]
EC50 ([4]; HIV-1 NL4-3, Table 3): 0.02 µM
EC50 ([4]; HIV-1 NL4-3, Table 4): 0.29 µM
CC50 [7]: > 100 µM
EC50 [5]: 0.07 µM
